Data as given in US20160272992A1, “PROTECTION OF PLANTS AGAINST OXIDATIVE STRESS” (priority 2013, published 2016).

Columns and labels:
Arabidopsis first leaves = test: Abaxial epidermal cell number of first leaves of plants grown on HU; assay type: in vivo, Arabidopsis thaliana; conditions: for reduction in epidermal cell number: grown 3 weeks on 1 mM HU, first leaves
Experimental: The smr5 (SALK_100918) and smr7 (SALK_128496) alleles were acquired from the Arabidopsis Biological Research Center. The atm-1, atr-2 and sog1-1 mutants have been described previously (Garcia et al., 2003; Preuss and Britt, 2003; Culligan et al., 2004; Yoshiyama et al., 2009). Unless stated otherwise, plants of Arabidopsis thaliana (L.) Heyhn (ecotype Columbia), were grown under long-day conditions (16 hours of light, 8 hours of darkness) at 22° C. on half-strength Murashige and Skoog (MS) germination medium (Murashige and Skoog, 1962). Arabidopsis plants were treated with HU as described by Cools et al. (2011). For bleomycin treatments, five-day-old seedlings were transferred into liquid MS medium supplemented with 0.3 μg/mL bleomycin. For γ-irradiation treatments, five-day-old in vitro-grown plantlets were irradiated with γ-rays at a dose of 20 Gy. For light treatments, one-week-old seedlings were transferred to continuous high-light conditions (growth rooms kept at 22° C. with 24-hour day/0-hour night cycles and a light intensity of 300-400 μmol m^−2 s^−1) for 2 days, and subsequently retransferred to low-light conditions. The first leaf pair was harvested and incubated in 100% ethanol for epidermis cell drawing as described by De Veylder et al. (2001).
For leaf measurements, first leaves were harvested at 21 days after sowing on control medium, medium supplemented with 1 mM hydroxyurea or 0.3 μg/mL bleomycin. […] The total (blade) area was determined from images digitized directly with a digital camera (Olympus BX51 microscope) mounted on a binocular (Stemi SV 11; Zeiss). From scanned drawing-tube images of the outlines of at least 30 cells of the abaxial epidermis located between 25% to 75% of the distance between the tip and the base of the leaf, halfway between the midrib and the leaf margin, the following parameters were determined: total area of all cells in the drawing and total numbers of pavement and guard cells, from which the average cell area was calculated. […] For confocal microscopy, root meristems were analyzed 2 days after transfer using a Zeiss LSM 510 Laser Scanning Microscope and the LSM Browser version 4.2 software (Zeiss). […] GFP fluorescence was detected with the 488-nm line of an Argon laser. GFP and PI were detected simultaneously by combining the settings indicated above in the sequential scanning facility of the microscope. Acquired images were quantitatively analyzed with the ImageJ v1.45s software (on the World Wide Web at rsbweb.nih.gov/ij/) and Cell-o-Tape plug-ins (French et al., 2012). Chlorophyll a fluorescence parameters were measured using the IMAGING PAM M-Series Chlorofyll Fluorescence (Walz) and associated software. […]

catalase = test: Catalase assay (H2O2 breakdown by leaf protein extract); assay type: biochemical, Arabidopsis thaliana; conditions: extracts of control plants germinated on 1 mM HU
Experimental: Plants were germinated on either control medium, medium with 1 mM HU or 6 μM 3-AT. Leaf tissue of 10 plants was ground in 200 μL extraction buffer (60 mM Tris (pH 6.9), 1 mM phenylmethylsulfonylfluoride, 10 mM DTT) on ice. The homogenate was centrifuged at 13,000 g for 15 minutes at 4° C. A total of 45 μg protein extract was mixed with potassium phosphate buffer (50 mM, pH 7.0) (Vandenabeele et al., 2004). After addition of 11.4 μL H2O2 (7.5%), the absorbance of the sample at 240 nm after 0 and 60 seconds was measured to determine catalase activity by H2O2 breakdown (Beers and Sizer, 1952; Vandenabeele et al., 2004).

[1] = tested on: 5-day-old wild-type root tips; conditions: 2-mM hydroxyurea; cited from earlier work

With `NC(=O)NO` [HU, hydroxyurea] the “reduction in leaf size and cell number” value (Arabidopsis first leaves; SMR5^KO SMR7^KO double mutant, 1 mM HU, compared with single knockouts) was “even less”, the “reduction in epidermal cell number” value (Arabidopsis first leaves; SMR5^KO plants) was 29% and the “reduction in epidermal cell number” value (Arabidopsis first leaves; SMR7^KO plants) was 30%. For the same compound, the “reduction in epidermal cell number” value (Arabidopsis first leaves; control plants (Col-0)) was 47%, the “H2O2 decomposition rate of plant extracts” value (catalase) was “reduced H2O2 decomposition rate” and the “HU 24 h/0 h fold change, AT1G07500 (Siamese-related 5)” value [1] was 7.863. The “HU 24 h/0 h fold change, AT1G09815 (polymerase delta 4)” value [1] was 2.354, the “HU 24 h/0 h fold change, AT1G12020 (unknown protein)” value [1] was 1.873 and the “HU 24 h/0 h fold change, AT1G13330 (Hop2 homolog)” value [1] was 2.949. The “HU 24 h/0 h fold change, AT1G17460 (TRF-like 3)” value [1] was 2.378, the “HU 24 h/0 h fold change, AT1G30600 (Subtilase family protein)” value [1] was 1.711 and the “HU 24 h/0 h fold change, AT1G31280 (Argonaute family protein)” value [1] was 1.866. For the same compound, the “HU 24 h/0 h fold change, AT1G49030 (PLAC8 family protein)” value [1] was 1.553, the “HU 24 h/0 h fold change, AT1G59660 (Nucleoporin autopeptidase)” value [1] was 1.860 and the “HU 24 h/0 h fold change, AT1G76180 (Dehydrin family protein)” value [1] was 1.659. The “HU 24 h/0 h fold change, AT2G18600 (Ubiquitin-conjugating enzyme family protein)” value [1] was 5.521, the “HU 24 h/0 h fold change, AT2G21790 (ribonucleotide reductase 1)” value [1] was 2.514 and the “HU 24 h/0 h fold change, AT2G30360 (SOS3-interacting protein 4)” value [1] was 2.274. For the same compound, the “HU 24 h/0 h fold change, AT2G31320 (poly(ADP-ribose) polymerase 2)” value [1] was 2.445, the “HU 24 h/0 h fold change, AT2G36910 (ATP binding cassette subfamily B1)” value [1] was 1.569 and the “HU 24 h/0 h fold change, AT2G45460 (SMAD/FHA domain-containing protein)” value [1] was 2.378. The “HU 24 h/0 h fold change, AT2G46610 (RNA-binding RRM/RBD/RNP motifs family protein)” value [1] was 3.593, the “HU 24 h/0 h fold change, AT2G47680 (zinc finger CCCH type helicase family protein)” value [1] was 3.422 and the “HU 24 h/0 h fold change, AT3G02400 (SMAD/FHA domain-containing protein)” value [1] was 2.479. For the same compound, the “HU 24 h/0 h fold change, AT3G07800 (Thymidine kinase)” value [1] was 7.160, the “HU 24 h/0 h fold change, AT3G12510 (MADS-box family protein)” value [1] was 2.266 and the “HU 24 h/0 h fold change, AT3G15240 (Serine/threonine-protein kinase WNK-related)” value [1] was 1.790. For the same compound, the “HU 24 h/0 h fold change, AT3G20490 (unknown protein)” value [1] was 2.313, the “HU 24 h/0 h fold change, AT3G25250 (AGC kinase family protein)” value [1] was 1.853 and the “HU 24 h/0 h fold change, AT3G27060 (Ferritin/ribonucleotide reductase-like family protein)” value [1] was 4.595. For the same compound, the “HU 24 h/0 h fold change, AT3G27620 (alternative oxidase 1C)” value [1] was 2.056, the “HU 24 h/0 h fold change, AT3G27950 (GDSL-like Lipase/Acylhydrolase superfamily protein)” value [1] was 1.641 and the “HU 24 h/0 h fold change, AT3G42860 (zinc knuckle CCHC-type family protein)” value [1] was 2.445. For the same compound, the “HU 24 h/0 h fold change, AT3G45730 (unknown protein)” value [1] was 5.637, the “HU 24 h/0 h fold change, AT4G02390 (Poly(ADP-ribose) polymerase)” value [1] was 7.701 and the “HU 24 h/0 h fold change, AT4G04750 (Major facilitator superfamily protein)” value [1] was 1.625. For the same compound, the “HU 24 h/0 h fold change, AT4G11740 (Ubiquitin-like superfamily protein)” value [1] was 1.653, the “HU 24 h/0 h fold change, AT4G15480 (UDP-Glycosyltransferase superfamily protein)” value [1] was 2.196 and the “HU 24 h/0 h fold change, AT4G19130 (Replication factor-A protein 1-related)” value [1] was 2.305. The “HU 24 h/0 h fold change, AT4G21070 (Breast cancer susceptibility1)” value [1] was 10.375, the “HU 24 h/0 h fold change, AT4G22960 (Unknown function DUF544)” value [1] was 5.315 and the “HU 24 h/0 h fold change, AT4G28950 (RHO-related protein from plants 9)” value [1] was 9.680. The “HU 24 h/0 h fold change, AT4G29170 (Mnd1 family protein)” value [1] was 2.898, the “HU 24 h/0 h fold change, AT4G35740 (DEAD/DEAH box RNA helicase family protein)” value [1] was 2.594 and the “HU 24 h/0 h fold change, AT5G02220 (unknown protein; SMR4)” value [1] was 4.500. The “HU 24 h/0 h fold change, AT5G03780 (TRF-like 10)” value [1] was 7.111, the “HU 24 h/0 h fold change, AT5G06190 (unknown protein)” value [1] was 2.878 and the “HU 24 h/0 h fold change, AT5G11460 (Protein of unknown function DUF581)” value [1] was 5.483. For the same compound, the “HU 24 h/0 h fold change, AT5G14920 (Gibberellin-regulated family protein)” value [1] was 2.789, the “HU 24 h/0 h fold change, AT5G14930 (senescence-associated gene 101)” value [1] was 1.542 and the “HU 24 h/0 h fold change, AT5G20850 (RAS associated with diabetes protein 51)” value [1] was 4.643. The “HU 24 h/0 h fold change, AT5G24280 (Gamma-irradiation and mitomycin c induced 1)” value [1] was 4.823, the “HU 24 h/0 h fold change, AT5G25810 (Integrase-type DNA-binding superfamily protein)” value [1] was 1.558 and the “HU 24 h/0 h fold change, AT5G40840 (Rad21/Rec8-like family protein)” value [1] was 3.375. For the same compound, the “HU 24 h/0 h fold change, AT5G48720 (X-ray induced transcript 1)” value [1] was 5.296, the “HU 24 h/0 h fold change, AT5G49480 (Ca2+-binding protein 1)” value [1] was 1.952 and the “HU 24 h/0 h fold change, AT5G55490 (Gamete expressed protein 1)” value [1] was 1.670. For the same compound, the “HU 24 h/0 h fold change, AT5G60100 (pseudo-response regulator 3)” value [1] was 1.619, the “HU 24 h/0 h fold change, AT5G60250 (Zinc finger C3HC4-type RING finger family protein)” value [1] was 8.907 and the “HU 24 h/0 h fold change, AT5G64060 (NAC domain containing protein 103)” value [1] was 5.579. For the same compound, the “HU 24 h/0 h fold change, AT5G66130 (RADIATION SENSITIVE 17)” value [1] was 2.888, the “HU 24 h/0 h fold change, AT5G66985 (unknown protein)” value [1] was 3.294 and the “HU 24 h/0 h fold change, AT5G67360 (Subtilase family protein)” value [1] was 1.676. For the same compound, the “HU 24 h/0 h fold change, AT5G67460 (O-Glycosyl hydrolases family 17 protein)” value [1] was 2.799.
